# Reference: ChEMBL document CHEMBL4411309, “Discovery of 2-substituted-N-(3-(3,4-dihydroisoquinolin-2(1H)-yl)-2-hydroxypropyl)-1,2,3,4-tetrahydroisoquinoline-6-carboxamide as potent and selective protein arginine methyltransferases 5 inhibitors: Design, synthesis and biological evaluation” (Eur J Med Chem, 2019)
# Columns and labels:
# MV4-11 [1] = experiment: Antiproliferative activity against human MV4-11 cells supplemented with fresh medium containing compound every 4 days measured on day 12 by Celltiter-glo luminescent cell viability assay; assay type: functional
# MV4-11 [2] = experiment: Antiproliferative activity against human MV4-11 cells supplemented with fresh medium containing compound every 4 days measured on day 8 by Celltiter-glo luminescent cell viability assay; assay type: functional
# PRMT5/MEP50 complex = PRMT5/MEP50 complex (Homo sapiens, UniProt O14744); experiment: Inhibition of recombinant human N-terminal FLAG-tagged PRMT5 (2 to end residues)/human N-terminal His-tagged MEP50 (2 to end residues) expressed in HEK293F cells using H4 peptide as substrate preincubated for 15 mins followed by substrate and [3H]SAM addition and measured after 1 hr by scintillation counting method
# Sequence of PRMT5/MEP50 complex (O14744 whole entry): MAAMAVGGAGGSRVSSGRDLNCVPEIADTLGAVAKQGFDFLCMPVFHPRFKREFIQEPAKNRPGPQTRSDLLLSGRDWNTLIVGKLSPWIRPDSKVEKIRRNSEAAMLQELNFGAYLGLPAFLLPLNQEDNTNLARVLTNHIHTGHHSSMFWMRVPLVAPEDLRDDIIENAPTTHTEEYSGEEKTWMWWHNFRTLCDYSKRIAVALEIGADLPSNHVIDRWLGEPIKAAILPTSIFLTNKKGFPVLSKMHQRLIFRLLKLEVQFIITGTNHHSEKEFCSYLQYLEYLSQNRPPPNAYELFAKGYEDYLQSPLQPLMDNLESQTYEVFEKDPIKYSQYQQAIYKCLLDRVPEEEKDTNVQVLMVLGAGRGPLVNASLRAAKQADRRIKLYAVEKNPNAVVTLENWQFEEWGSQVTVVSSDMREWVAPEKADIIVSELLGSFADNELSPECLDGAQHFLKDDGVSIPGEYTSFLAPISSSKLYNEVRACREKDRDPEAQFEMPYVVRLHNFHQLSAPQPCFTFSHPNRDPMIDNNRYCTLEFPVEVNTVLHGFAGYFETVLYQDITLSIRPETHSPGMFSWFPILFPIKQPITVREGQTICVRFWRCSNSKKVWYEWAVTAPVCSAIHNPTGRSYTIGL
# Sequence of PRMT5/MEP50 complex (Q9BQA1 whole entry, further chain): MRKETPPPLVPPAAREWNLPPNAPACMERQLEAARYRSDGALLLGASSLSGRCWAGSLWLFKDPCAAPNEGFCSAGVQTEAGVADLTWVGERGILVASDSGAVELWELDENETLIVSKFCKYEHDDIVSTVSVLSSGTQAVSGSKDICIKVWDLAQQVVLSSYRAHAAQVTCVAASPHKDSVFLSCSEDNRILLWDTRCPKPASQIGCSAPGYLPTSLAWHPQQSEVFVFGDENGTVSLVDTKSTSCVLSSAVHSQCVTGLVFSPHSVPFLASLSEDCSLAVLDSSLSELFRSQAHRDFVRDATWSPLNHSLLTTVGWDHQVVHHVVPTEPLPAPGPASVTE
# [3] = Elimination half life in Sprague-Dawley rat at 10 mg/kg, po administered via gavage by LC-MS/MS analysis; assay type: ADME, organism-based; details: in vivo, read-out: beta t1/2 (converted)
# [4] = Cmax in Sprague-Dawley rat at 10 mg/kg, po administered via gavage by LC-MS/MS analysis; assay type: ADME, organism-based; parameters: dose 10 mg/kg, route oral; details: in vivo
# [5] = AUC in Sprague-Dawley rat at 10 mg/kg, po administered via gavage by LC-MS/MS analysis; assay type: ADME, organism-based; details: in vivo
# [6] = Tmax in Sprague-Dawley rat at 10 mg/kg, po administered via gavage by LC-MS/MS analysis; assay type: ADME, organism-based; details: in vivo
# [7] = target: Protein arginine N-methyltransferase 5 (Homo sapiens) (UniProt O14744); experiment: Inhibition of PRMT5 in human MV411 cells assessed as reduction in SmD3 methylation after 4 days by Western blot analysis; assay type: cell-based
# Sequence of Protein arginine N-methyltransferase 5 (Homo sapiens) (O14744 whole entry): as the sequence (O14744 whole entry) above
Compound,GI50 (MV4-11 [1]) [nM],GI50 (MV4-11 [2]) [nM],IC50 (PRMT5/MEP50 complex) [nM],further results
O=C(NCC(O)CN1CCc2ccccc2C1)c1cc2c(s1)CCN(C(=O)c1ccc(Br)cc1)C2 (stereo unspecified),66,181,18,–
O=C(NCC(O)CN1CCc2ccccc2C1)c1cc2c(s1)CCN(C(=O)c1cccc(F)c1)C2 (stereo unspecified),166,314,31.5,–
N#Cc1ccc(C(=O)N2CCc3sc(C(=O)NCC(O)CN4CCc5ccccc5C4)cc3C2)cc1 (stereo unspecified),135,258,25,–
COc1ccc(C(=O)N2CCc3cc(C(=O)NC[C@H](O)CN4CCc5ccccc5C4)ccc3C2)cc1.Cl,–,–,–,half-life [3]: 128 min; Cmax [4]: 102 ng/mL; AUC [5]: 94.6 ng·h/mL; Tmax [6]: 25 min
O=C(NCC(O)CN1CCc2ccccc2C1)c1cc2c(s1)CCN(C1CCOCC1)C2 (stereo unspecified),–,–,460,–
O=C(NCC(O)CN1CCc2ccccc2C1)c1cc2c(s1)CCN(C1CCCCC1)C2 (stereo unspecified),–,–,130,–
Cc1ccc(C(=O)N2CCc3sc(C(=O)NCC(O)CN4CCc5ccccc5C4)cc3C2)cc1 (stereo unspecified),110,135,32.5,–
CN(C)c1ccc(C(=O)N2CCc3cc(C(=O)NC[C@H](O)CN4CCc5ccccc5C4)ccc3C2)cc1.Cl,–,–,–,half-life [3]: 56.7 min; Cmax [4]: 14.3 ng/mL; AUC [5]: 15.8 ng·h/mL; Tmax [6]: 20 min
CN1CCc2[nH]c(C(=O)NCC(O)CN3CCc4ccccc4C3)cc2C1 (stereo unspecified),–,–,1900,–
O=C(NCC(O)CN1CCc2ccccc2C1)c1cc2c(s1)CCN(C(=O)c1ccccc1F)C2 (stereo unspecified),124,261,45,–
CN(C)c1ccc(C(=O)N2CCc3ccc(C(=O)NCC(O)CN4CCc5ccccc5C4)cc3C2)cc1 (stereo unspecified),–,–,40,–
CN1CCc2sc(C(=O)NCC(O)CN3CCc4ccccc4C3)nc2C1 (stereo unspecified),–,–,1200,–
CN(C)c1ccc(C(=O)N2Cc3ccc(C(=O)NCC(O)CN4CCc5ccccc5C4)cc3C2)cc1 (stereo unspecified),92,128,17,–
O=C(NCC(O)CN1CCc2ccccc2C1)c1cc2c(s1)CCN(C(=O)c1ccc(Cl)cc1)C2 (stereo unspecified),162,147,23,–
O=C(NCC(O)CN1CCc2ccccc2C1)c1cc2c(s1)CCN(C(=O)c1ccc(C(F)(F)F)cc1)C2 (stereo unspecified),134,204,49,–
O=C(NCC(O)CN1CCc2ccccc2C1)c1cc2c(s1)CCN(C(=O)c1ccccc1)C2 (stereo unspecified),154,184,39,–
CN1CCc2oc(C(=O)NCC(O)CN3CCc4ccccc4C3)cc2C1 (stereo unspecified),–,–,1900,–
O=C(NCC(O)CN1CCc2ccccc2C1)c1cc2c(s1)CCN(C(=O)c1ccc(F)cc1)C2 (stereo unspecified),126,199,30,–
O=C(NCC(O)CN1CCc2ccccc2C1)c1cc2c(s1)CCN(C(=O)CCc1ccccc1)C2 (stereo unspecified),185,304,47,–
O=C(NCC(O)CN1CCc2ccccc2C1)c1cc2c(s1)CCN(C(=O)c1ccco1)C2 (stereo unspecified),160,239,25,–
CC(C)(C)c1ccc(C(=O)N2CCc3sc(C(=O)NCC(O)CN4CCc5ccccc5C4)cc3C2)cc1 (stereo unspecified),186,415,19,–
O=C(NCC(O)CN1CCc2ccccc2C1)c1cc2c(s1)CCN(C(=O)Cc1ccccc1)C2 (stereo unspecified),147,256,50,–
CCCN1CCc2sc(C(=O)NCC(O)CN3CCc4ccccc4C3)cc2C1 (stereo unspecified),–,–,1100,–
O=C(NCC(O)CN1CCc2ccccc2C1)c1cc2c(s1)CCN(C(=O)Oc1ccccc1)C2 (stereo unspecified),–,–,50,–

Compound,GI50 (MV4-11 [1]) [nM],GI50 (MV4-11 [2]) [nM],IC50 (PRMT5/MEP50 complex) [nM],further results
O=C(NCC(O)CN1CCc2ccccc2C1)c1cc2c(s1)CCN(Cc1ccccc1)C2 (stereo unspecified),–,–,240,–
O=C(NCC(O)CN1CCc2ccccc2C1)c1cc2c(s1)CCN(C(=O)c1ccncc1)C2 (stereo unspecified),110,253,45,–
O=C(NCC(O)CN1CCc2ccccc2C1)c1cc2c(s1)CCN(C(=O)c1ccc3ccccc3c1)C2 (stereo unspecified),178,322,22,–
CC(=O)c1ccc(C(=O)N2CCc3sc(C(=O)NCC(O)CN4CCc5ccccc5C4)cc3C2)cc1 (stereo unspecified),89,193,19,–
CN(C)c1ccc(C(=O)N2CCc3sc(C(=O)NCC(O)CN4CCc5ccccc5C4)cc3C2)cc1 (stereo unspecified),143,197,23,–
CN(C)c1ccc(C(=O)N2CCc3cc(C(=O)NCC(O)CN4CCc5ccccc5C4)ccc3C2)cc1 (stereo unspecified),36,70,17,–
COc1ccc(C(=O)N2CCc3sc(C(=O)NCC(O)CN4CCc5ccccc5C4)cc3C2)cc1 (stereo unspecified),85.6,216,20,–
CC(c1ccccc1)N1CCc2sc(C(=O)NCC(O)CN3CCc4ccccc4C3)cc2C1 (stereo unspecified),172,436,60,–
CN1CCc2sc(C(=O)NCC(O)CN3CCc4ccccc4C3)cc2C1 (stereo unspecified),–,–,475,–
O=C(NCC(O)CN1CCc2ccccc2C1)c1cc2c(s1)CCN(C(=O)c1cccs1)C2 (stereo unspecified),168,324,37,–
O=C(NCC(O)CN1CCc2ccccc2C1)c1cc2c(s1)CCN(S(=O)(=O)c1ccccc1)C2 (stereo unspecified),209,375,91,–
O=C(NCC(O)CN1CCc2ccccc2C1)c1cc2c(s1)CCN(c1ccccc1)C2 (stereo unspecified),–,–,260,–
COc1ccc(C(=O)N2CCc3cc(C(=O)NC[C@@H](O)CN4CCc5ccccc5C4)ccc3C2)cc1,213,333,33,–
O=C(NC[C@H](O)CN1CCc2ccccc2C1)c1cc(NC2COC2)ncn1,106,212,–,–
COc1ccc(C(=O)N2CCc3cc(C(=O)NC[C@H](O)CN4CCc5ccccc5C4)ccc3C2)cc1,23,37,13,–
O=C(NC[C@H](O)CN1CCc2ccccc2C1)c1ccc2c(c1)CCN(C(=O)c1ccc(Br)cc1)C2,–,–,–,inhibition [7]: Dose-dependent effect
COc1ccc(C(=O)N2CCc3cc(C(=O)NCC(O)CN4CCc5ccccc5C4)ccc3C2)cc1 (stereo unspecified),32,35,23,–
O=C(NCC(O)CN1CCc2ccccc2C1)c1ccc2c(c1)CCN(C(=O)c1ccc(Br)cc1)C2 (stereo unspecified),34,45,11,–
CN(C)c1ccc(C(=O)N2CCc3cc(C(=O)NC[C@H](O)CN4CCc5ccccc5C4)ccc3C2)cc1,53,75,11,–
O=C(NCC(O)CN1CCc2ccccc2C1)c1cc2c(s1)CCN(C(=O)c1ccc([N+](=O)[O-])cc1)C2 (stereo unspecified),141,201,19,–
Cc1c(C(=O)NCC(O)CN2CCc3ccccc3C2)sc2c1CN(C(=O)c1ccc(N(C)C)cc1)CC2 (stereo unspecified),101,169,23,–
O=C(NC[C@@H](O)CN1CCc2ccccc2C1)c1ccc2c(c1)CCN(C(=O)c1ccc(Br)cc1)C2,187,213,59,–
O=C(NCC(O)CN1CCc2ccccc2C1)c1cc2c(s1)CCN(C(=O)c1ccc(N3CCC3)cc1)C2 (stereo unspecified),–,–,44,–
